Consider two compounds from ChEMBL document CHEMBL2057108 (Bioorg Med Chem Lett, 2012).

The target of data set [1] is T1, 5-hydroxytryptamine receptor 4 (Homo sapiens, UniProt Q13639). Briefly: Intrinsic activity at human 5HT4C receptor expressed at 100 fold physiological-level in HEK293 cells assessed as cAMP accumulation relative to 5HT. In kind it is functional, cell-based. In general terms: Cyclic AMP is a second messenger, typically raised through Gs and lowered through Gi signalling.

In another data set the test system is Liver microsomes. Briefly: (§1) Half life in rat liver microsomes. In kind it is ADME, Microsome. To be noted: microsomes. A general note: Liver microsomes are vesicles of endoplasmic reticulum, rich in cytochrome P450 enzymes.
The next data set is filed under the species Homo sapiens. Briefly: Selectivity ratio of Ki for human 5HT3A receptor to Ki for human 5HT4C receptor.
In data set [2] the target is T1, 5-hydroxytryptamine receptor 4. The data set is described as follows: Agonist activity at human 5HT4C receptor expressed at 100 fold physiological-level in HEK293 cells assessed as cAMP accumulation. Format: functional, cell-based.
In another data set the target is hERG (KCNH2) (Homo sapiens, UniProt Q12809). Briefly: Inhibition of human ERG expressed in CHO cells at 3 uM. Format: cell-based. To be noted: CHO cells expressing human ERG.
Sequence of hERG (KCNH2) (Q12809 whole entry): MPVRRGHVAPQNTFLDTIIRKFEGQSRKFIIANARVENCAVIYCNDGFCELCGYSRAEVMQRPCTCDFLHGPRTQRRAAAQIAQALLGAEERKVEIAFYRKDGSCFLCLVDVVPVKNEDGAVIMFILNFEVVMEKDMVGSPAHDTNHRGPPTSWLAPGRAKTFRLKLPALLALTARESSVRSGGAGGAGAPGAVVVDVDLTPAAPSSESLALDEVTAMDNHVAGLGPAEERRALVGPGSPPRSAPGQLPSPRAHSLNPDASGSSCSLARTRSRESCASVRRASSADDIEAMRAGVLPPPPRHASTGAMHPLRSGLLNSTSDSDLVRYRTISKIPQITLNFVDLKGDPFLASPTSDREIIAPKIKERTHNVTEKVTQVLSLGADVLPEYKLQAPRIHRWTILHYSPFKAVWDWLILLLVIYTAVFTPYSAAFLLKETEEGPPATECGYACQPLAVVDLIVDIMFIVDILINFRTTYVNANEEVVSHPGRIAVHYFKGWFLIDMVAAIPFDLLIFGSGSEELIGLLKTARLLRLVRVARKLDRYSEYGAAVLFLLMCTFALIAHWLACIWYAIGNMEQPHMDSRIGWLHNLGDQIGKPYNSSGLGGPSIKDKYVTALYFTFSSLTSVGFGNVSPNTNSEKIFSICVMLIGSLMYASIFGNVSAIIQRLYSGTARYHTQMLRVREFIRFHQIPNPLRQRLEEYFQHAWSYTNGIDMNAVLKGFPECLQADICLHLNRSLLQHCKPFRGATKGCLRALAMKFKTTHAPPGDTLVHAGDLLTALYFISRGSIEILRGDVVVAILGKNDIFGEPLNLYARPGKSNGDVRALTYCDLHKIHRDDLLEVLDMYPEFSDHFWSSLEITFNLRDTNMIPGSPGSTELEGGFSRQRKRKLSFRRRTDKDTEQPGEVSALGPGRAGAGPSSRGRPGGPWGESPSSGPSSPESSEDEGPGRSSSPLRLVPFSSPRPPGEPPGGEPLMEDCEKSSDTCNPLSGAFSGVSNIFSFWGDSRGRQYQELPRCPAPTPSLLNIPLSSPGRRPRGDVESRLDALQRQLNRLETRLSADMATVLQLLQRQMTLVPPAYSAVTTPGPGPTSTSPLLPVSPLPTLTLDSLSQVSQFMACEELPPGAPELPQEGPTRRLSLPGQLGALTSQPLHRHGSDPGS
A short description of data set [3]: as §1. In kind it is ADME, Microsome. As to conditions: liver microsomes.
A short description of data set [4]: Permeability across human Caco2 cells. Format: ADME, cell-based. As to conditions: Caco-2, read-out: Kp.
Data set [5] in a line: Cmax in Sprague-Dawley rat at 5 mg/kg, po. Format: ADME, organism-based. Further details: dose 5 mg/kg, route oral. To be noted: in vivo.
Data set [6] in a line: AUC (0 to t) in Sprague-Dawley rat at 5 mg/kg, po. In kind it is ADME, organism-based. Set-up: dose 5 mg/kg, route oral. As to conditions: plasma.
Data set [7] is described as follows: Half life in Sprague-Dawley rat at 5 mg/kg, po. Set-up: dose 5 mg/kg, route oral. Format: ADME, organism-based. To be noted: in vivo.
The nature of data set [8]: Oral bioavailability in Sprague-Dawley rat at 5 mg/kg. In kind it is ADME, organism-based. To be noted: in vivo.
The target in data set [9] is T2, 5-hydroxytryptamine receptor 1A (Homo sapiens) (UniProt P08908).
T2 sequence (whole entry): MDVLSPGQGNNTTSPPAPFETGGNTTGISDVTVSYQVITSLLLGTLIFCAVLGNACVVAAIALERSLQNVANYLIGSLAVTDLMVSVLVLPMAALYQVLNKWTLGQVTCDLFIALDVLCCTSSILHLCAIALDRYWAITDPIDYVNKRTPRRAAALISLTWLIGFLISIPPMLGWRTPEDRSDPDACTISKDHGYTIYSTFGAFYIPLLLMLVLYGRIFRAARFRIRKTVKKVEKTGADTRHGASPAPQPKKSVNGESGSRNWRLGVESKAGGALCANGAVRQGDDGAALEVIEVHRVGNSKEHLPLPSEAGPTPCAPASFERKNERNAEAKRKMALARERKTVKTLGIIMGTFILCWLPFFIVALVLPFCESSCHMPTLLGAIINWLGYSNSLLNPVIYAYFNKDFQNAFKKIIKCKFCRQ
Briefly: Inhibition of 5HT1A receptor at 10 uM.

The target of data set [10] is 5-hydroxytryptamine receptor 1B (Homo sapiens) (UniProt P28222). Briefly: Inhibition of 5HT1B receptor at 10 uM.
Sequence of 5-hydroxytryptamine receptor 1B (Homo sapiens) (P28222 whole entry): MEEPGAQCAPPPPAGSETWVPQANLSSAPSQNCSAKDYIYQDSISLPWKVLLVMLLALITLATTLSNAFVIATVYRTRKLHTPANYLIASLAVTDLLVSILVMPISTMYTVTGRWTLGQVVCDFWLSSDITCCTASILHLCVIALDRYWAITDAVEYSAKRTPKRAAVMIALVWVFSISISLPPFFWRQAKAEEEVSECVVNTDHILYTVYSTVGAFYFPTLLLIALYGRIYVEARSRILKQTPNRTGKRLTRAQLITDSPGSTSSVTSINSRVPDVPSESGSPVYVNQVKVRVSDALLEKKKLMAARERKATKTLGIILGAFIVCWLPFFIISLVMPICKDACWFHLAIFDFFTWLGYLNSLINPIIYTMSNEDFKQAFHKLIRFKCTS
In data set [11] the target is 5-hydroxytryptamine receptor 1D (Homo sapiens) (UniProt P28221). The data set is described as follows: Inhibition of 5HT1D receptor at 10 uM.
Sequence of 5-hydroxytryptamine receptor 1D (Homo sapiens) (P28221 whole entry): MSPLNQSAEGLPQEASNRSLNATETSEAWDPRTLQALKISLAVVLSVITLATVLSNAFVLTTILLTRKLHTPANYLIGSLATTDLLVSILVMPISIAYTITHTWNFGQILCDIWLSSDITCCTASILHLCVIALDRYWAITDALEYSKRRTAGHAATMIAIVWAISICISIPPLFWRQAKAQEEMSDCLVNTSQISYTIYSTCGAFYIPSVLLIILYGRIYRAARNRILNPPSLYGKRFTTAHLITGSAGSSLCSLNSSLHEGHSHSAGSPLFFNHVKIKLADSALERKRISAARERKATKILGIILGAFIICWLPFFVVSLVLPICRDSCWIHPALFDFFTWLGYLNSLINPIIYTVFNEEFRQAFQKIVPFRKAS
Data set [12] has as its target 5-hydroxytryptamine receptor 2A (Homo sapiens) (UniProt P28223). Briefly: Inhibition of 5HT2A receptor at 10 uM.
In data set [13] the target is 5-hydroxytryptamine receptor 2B (Homo sapiens) (UniProt P41595). Briefly: Inhibition of 5HT2B receptor at 10 uM.
Sequence of 5-hydroxytryptamine receptor 2B (Homo sapiens) (P41595 whole entry): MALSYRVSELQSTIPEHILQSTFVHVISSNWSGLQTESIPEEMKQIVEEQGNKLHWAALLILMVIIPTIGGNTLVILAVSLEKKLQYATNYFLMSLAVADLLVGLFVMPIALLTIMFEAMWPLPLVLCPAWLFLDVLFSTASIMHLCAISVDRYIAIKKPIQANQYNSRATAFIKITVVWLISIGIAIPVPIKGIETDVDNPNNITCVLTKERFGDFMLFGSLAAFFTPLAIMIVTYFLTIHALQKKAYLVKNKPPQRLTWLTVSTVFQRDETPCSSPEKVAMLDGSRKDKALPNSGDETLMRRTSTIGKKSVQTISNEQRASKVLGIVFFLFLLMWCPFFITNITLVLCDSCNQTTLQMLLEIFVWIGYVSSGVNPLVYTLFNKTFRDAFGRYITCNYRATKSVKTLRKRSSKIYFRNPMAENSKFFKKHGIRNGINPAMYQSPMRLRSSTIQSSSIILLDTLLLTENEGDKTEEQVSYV
For data set [14], the target named is T3, 5-hydroxytryptamine receptor 2C (Homo sapiens) (UniProt P28335).
T3 sequence (whole entry): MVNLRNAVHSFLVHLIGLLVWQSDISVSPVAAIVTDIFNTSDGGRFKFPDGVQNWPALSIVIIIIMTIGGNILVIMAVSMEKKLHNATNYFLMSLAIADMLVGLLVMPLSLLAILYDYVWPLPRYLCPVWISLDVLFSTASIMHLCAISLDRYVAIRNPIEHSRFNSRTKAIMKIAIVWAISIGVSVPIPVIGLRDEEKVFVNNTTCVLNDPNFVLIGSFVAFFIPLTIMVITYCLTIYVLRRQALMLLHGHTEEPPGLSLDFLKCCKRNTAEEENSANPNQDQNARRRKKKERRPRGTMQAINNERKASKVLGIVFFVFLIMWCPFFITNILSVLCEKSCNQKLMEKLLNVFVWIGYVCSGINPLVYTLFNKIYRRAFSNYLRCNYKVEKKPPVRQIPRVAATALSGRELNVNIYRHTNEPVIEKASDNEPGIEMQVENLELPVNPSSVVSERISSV
Briefly: Inhibition of 5HT2C receptor at 10 uM.

Data set [15] concerns the target 5-hydroxytryptamine receptor 7 (Homo sapiens) (UniProt P34969). Briefly: Inhibition of 5HT7 receptor at 10 uM.
The target in data set [16] is T1, 5-hydroxytryptamine receptor 4. Briefly: Agonist activity at human 5HT4C receptor expressed in a cell line expressing receptor at 10 fold physiological-level assessed as cAMP accumulation. In kind it is functional.
Data set [17] has the same target. Briefly: Intrinsic activity at human 5HT4C receptor expressed in a cell line expressing receptor at 10 fold physiological-level assessed as cAMP accumulation relative to 5HT. Format: functional.
The target is the same in data set [18]. The data set is described as follows: 5-HT4C receptor-mediated exchange of GDP for europium labeled GTP (pEC50).
Data set [19] shares this target. Briefly: 5-HT4C receptor-mediated exchange of GDP for europium labeled GTP (intrinsic activity).
The target in data set [20] is 5-hydroxytryptamine receptor 4 (Cavia porcellus, UniProt O70528). The data set is described as follows: Agonist activity at 5HT4 receptor in guinea pig colon assessed as longitudinal muscle plexus contraction.
Sequence of 5-hydroxytryptamine receptor 4 (Cavia porcellus, UniProt O70528) (O70528 whole entry): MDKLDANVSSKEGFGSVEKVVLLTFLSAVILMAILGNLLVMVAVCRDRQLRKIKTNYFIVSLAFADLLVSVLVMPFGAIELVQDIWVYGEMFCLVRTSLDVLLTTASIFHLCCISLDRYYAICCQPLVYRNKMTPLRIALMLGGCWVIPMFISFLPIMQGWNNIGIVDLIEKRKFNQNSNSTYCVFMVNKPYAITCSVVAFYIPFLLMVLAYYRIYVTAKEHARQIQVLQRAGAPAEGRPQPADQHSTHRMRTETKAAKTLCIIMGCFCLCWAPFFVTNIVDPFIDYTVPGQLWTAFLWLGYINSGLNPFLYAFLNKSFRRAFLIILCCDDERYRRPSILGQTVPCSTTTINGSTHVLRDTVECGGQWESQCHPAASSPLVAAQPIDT
The subject of data set [21] is Rattus norvegicus. Briefly: 5-HT4 receptor-mediated esophageal relaxation in anesthetized rat (following i.v. administration) using digital sonomicrometry. In kind it is functional. To be noted: Sprague-Dawley.
The subject of data set [22] is Rattus norvegicus. The data set is described as follows: 5-HT4 receptor-mediated esophageal relaxation in anesthetized rat (following intraduodenal administration) using digital sonomicrometry. Format: functional, organism-based. As to conditions: Sprague-Dawley.
The test system of another data set is Cavia porcellus. The data set is described as follows: Agonist activity at 5HT4 receptor in sc dosed guinea pig assessed as decrease in colonic transit time of carmine red dye after 60 mins relative to vehicle treated control. Format: functional, organism-based.
Data set [23] addresses 5-hydroxytryptamine receptor 6 (Homo sapiens) (UniProt P50406). The data set is described as follows: Inhibition of 5HT6 receptor at 10 uM.
For data set [24], the target named is 5-hydroxytryptamine receptor 5A (Homo sapiens) (UniProt P47898). Briefly: Inhibition of 5HT5A receptor at 10 uM.
Sequence of 5-hydroxytryptamine receptor 5A (Homo sapiens) (P47898 whole entry): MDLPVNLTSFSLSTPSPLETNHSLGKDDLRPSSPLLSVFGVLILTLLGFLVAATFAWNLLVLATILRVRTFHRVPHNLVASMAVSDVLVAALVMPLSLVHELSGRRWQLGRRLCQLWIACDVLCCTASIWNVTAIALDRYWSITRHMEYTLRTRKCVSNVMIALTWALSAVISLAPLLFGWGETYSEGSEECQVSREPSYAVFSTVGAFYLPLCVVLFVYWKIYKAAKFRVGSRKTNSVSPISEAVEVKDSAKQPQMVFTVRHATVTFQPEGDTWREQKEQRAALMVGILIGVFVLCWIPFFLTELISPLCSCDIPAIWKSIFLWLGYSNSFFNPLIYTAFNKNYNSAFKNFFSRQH
In data set [25] the target is T4, 5-hydroxytryptamine receptor 3A (Homo sapiens) (UniProt P46098).
T4 sequence (whole entry): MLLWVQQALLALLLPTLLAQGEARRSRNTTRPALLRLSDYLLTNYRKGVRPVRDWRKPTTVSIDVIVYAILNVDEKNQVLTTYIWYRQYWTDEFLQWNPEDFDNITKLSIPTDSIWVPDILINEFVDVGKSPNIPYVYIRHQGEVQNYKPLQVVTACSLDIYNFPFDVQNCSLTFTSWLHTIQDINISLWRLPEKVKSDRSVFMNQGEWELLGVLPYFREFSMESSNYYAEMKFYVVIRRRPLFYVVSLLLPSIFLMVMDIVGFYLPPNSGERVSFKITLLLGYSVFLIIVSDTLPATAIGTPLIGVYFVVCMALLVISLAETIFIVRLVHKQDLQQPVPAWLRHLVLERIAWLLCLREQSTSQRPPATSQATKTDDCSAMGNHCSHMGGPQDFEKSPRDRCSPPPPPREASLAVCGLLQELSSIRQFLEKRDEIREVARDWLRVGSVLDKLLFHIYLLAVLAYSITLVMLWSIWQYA
Briefly: Inhibition of 5HT3A receptor at 10 uM.

The target of data set [26] is T1, 5-hydroxytryptamine receptor 4. Briefly: biochemical.
Description: Displacement of [3H]GR113808 from human recombinant 5HT4C receptor expressed in HEK293 cells

SMILES strings stand for the structures. Activity calls are given as the source filed them. The calls are words filed in the database; no cut-off is given here. Some results are limits rather than exact numbers.

T1 sequence (Q13639 whole entry): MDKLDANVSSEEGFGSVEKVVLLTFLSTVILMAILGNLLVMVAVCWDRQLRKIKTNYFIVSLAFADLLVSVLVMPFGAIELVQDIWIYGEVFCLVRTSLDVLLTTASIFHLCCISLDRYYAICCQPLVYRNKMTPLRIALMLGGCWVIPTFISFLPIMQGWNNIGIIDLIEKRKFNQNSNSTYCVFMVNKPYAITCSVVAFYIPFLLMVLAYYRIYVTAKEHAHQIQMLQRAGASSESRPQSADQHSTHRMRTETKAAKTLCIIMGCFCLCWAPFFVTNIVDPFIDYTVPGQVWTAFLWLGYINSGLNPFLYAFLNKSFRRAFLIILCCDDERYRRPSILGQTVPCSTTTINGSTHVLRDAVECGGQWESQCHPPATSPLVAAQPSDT
Sequence of 5-hydroxytryptamine receptor 6 (Homo sapiens) (P50406 whole entry): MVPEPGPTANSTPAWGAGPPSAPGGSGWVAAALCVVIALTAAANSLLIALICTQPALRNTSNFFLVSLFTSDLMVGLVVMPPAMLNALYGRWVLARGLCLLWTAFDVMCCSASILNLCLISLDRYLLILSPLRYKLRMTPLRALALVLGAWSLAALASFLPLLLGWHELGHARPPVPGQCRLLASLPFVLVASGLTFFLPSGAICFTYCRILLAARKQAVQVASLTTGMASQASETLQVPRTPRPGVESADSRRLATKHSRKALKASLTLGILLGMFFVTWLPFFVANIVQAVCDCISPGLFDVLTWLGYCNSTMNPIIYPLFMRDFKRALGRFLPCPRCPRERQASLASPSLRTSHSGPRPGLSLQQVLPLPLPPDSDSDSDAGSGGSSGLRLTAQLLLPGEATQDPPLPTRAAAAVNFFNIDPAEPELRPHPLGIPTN
Sequence of 5-hydroxytryptamine receptor 2A (Homo sapiens) (P28223 whole entry): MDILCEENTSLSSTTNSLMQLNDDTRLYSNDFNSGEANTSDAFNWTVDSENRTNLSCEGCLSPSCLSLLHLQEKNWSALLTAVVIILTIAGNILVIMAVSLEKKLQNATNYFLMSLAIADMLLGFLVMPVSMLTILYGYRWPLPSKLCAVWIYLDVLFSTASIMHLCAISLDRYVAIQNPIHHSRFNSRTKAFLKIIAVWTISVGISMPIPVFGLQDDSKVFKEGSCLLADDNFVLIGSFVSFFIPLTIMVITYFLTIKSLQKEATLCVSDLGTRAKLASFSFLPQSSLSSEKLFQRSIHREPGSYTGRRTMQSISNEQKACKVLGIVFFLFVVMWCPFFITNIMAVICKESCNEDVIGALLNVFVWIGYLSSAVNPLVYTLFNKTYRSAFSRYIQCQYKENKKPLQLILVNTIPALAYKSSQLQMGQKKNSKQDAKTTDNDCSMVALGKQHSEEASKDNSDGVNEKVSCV
Sequence of 5-hydroxytryptamine receptor 7 (Homo sapiens) (P34969 whole entry): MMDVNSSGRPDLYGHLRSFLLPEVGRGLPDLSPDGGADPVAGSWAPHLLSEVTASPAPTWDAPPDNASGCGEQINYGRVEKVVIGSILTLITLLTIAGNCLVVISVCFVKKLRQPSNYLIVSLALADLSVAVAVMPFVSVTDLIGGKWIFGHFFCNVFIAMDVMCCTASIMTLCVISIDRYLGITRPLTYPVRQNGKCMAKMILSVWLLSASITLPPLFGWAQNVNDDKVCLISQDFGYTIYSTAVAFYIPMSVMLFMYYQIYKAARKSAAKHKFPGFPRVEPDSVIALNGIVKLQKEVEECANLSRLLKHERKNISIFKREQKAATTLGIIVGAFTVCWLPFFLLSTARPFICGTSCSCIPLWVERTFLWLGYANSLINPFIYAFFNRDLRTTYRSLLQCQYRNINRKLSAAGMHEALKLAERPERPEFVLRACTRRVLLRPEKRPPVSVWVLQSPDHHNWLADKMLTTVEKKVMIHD

As to `COc1cc(N)c(Cl)cc1C(=O)N[C@H]1CCN(CCCOc2ccc(F)cc2)C[C@H]1OC` (relative stereo) [REL-CISAPRIDE], in data set [1], the Intrinsic activity was found to be 117%. Moreover, the t1/2 in the data set with Liver microsomes is 0.783 h.

With `CC(=O)N1CCN(CCN2[C@@H]3CC[C@H]2C[C@@H](NC(=O)c2nn(C(C)C)c4ccccc24)C3)CC1`, the Ratio Ki in the data set listed under Homo sapiens was found to be 980. Moreover, the EC50 in [2] is 2.51 nM; in data set [16] it was 10 nM; in data set [18] it was 6.31 nM; in data set [20], 10 nM. For the same compound, the Intrinsic activity was determined as 83% in data set [1], 53% in [17] and 57% in data set [19]. This compound also displayed an inhibition at 3 µM on hERG (KCNH2) of 9%. For the same compound, the half-life in data set [3] was greater than 1.5 h; in data set [7], 3.2 h. Further, the Papp in data set [4] was found to be 31 ×10⁻⁶ cm/s. In addition, the Cmax in [5] was 254 ng/mL. This compound also yielded an AUC(0-t) in data set [6] of 730 ng·h/mL. In data set [8], the bioavailability was greater than 100%. The inhibition in data set [9], in [10], in data set [11], in data set [12], in data set [13] and in data set [14] was less than 50% throughout. Besides, the inhibition in data set [15], in data set [23], in [24] and in data set [25] was less than 50% each time. In addition, the Activity entry with Rattus norvegicus [21] and in the data set on Rattus norvegicus [22] was “Dose-dependent effect” in each case. The compound further showed an ED50 in the data set on Rattus norvegicus [21] (iv) of 0.0378 mg/kg. In the data set with Cavia porcellus, the outcome was Active. The compound further gave a Ki in data set [26] of 10 nM.

A word on the EC50: it is the concentration that produces a half-maximal response. By inhibition is commonly meant the relative decrease from the control value, in per cent. In general, half-life refers to the time in which the quantity being followed falls by half. Low readings indicate rapid decline, high ones slow decline. A word on the Cmax: it is the highest concentration seen after dosing. By AUC(0-t) is commonly meant exposure summed from dosing to a finite time, without extrapolation to infinity. A higher AUC(0-t) goes with high exposure. The bioavailability is dose-corrected exposure relative to a reference, in per cent. The low end stands for little systemic uptake, the high end for much systemic uptake. As a reminder, the ED50 is the midpoint of the dose-response relation. A low value points to greater potency. As usually defined, the Ki is a dissociation constant, usually derived from enzyme kinetics or from competition with a known ligand.
